From US8575352B2, “Benzyl sulfonamide derivatives useful as MOGAT-2 inhibitors” (Eli Lilly and Company, priority 2012, dated 2013) come the findings set out here.

Structures are written as SMILES. pIC50: −log10 of the molar value. Where a name gives a salt, the structure may show the parent alone.

In experiment [1] the test system is plasma triglyceride (TAG) secretion from the intestine. In words: Dog Oil Bolus Model (plasma triglyceride after olive oil bolus). As to conditions: olive oil bolus 5 ml/kg; for reduction of 18:1 TAG (plasma TAG 18:1 18:1 18:1 net AUC): 18:1 TAG by LC/MS/MS. It counts as in vivo, dog (male beagles). The source says:
Inhibiting MOGAT-2 found in the small intestine may be useful for treating hypertriglyceridemia caused by excessive fat intake Inhibition of MOGAT-2 disrupts resynthesis of triglycerides, which reduces secretion of triglycerides from the intestine. Therefore, MOGAT-2 inhibition interferes with a specific process that leads to eventual secretion of triglycerides into the intestine for eventual circulation through the body. To assess the ability of one or more of the exemplified compounds to inhibit MOGAT-2 induced TAG secretion into the intestine as measured in the blood system, the following protocol can be followed.
Twenty one male beagles (n=7 per treatment group) are enrolled for each study, each dog selected to have a body weight between 9-13 kg. House the dogs in cages with a standard light cycle (12 hours light and 12 hours dark); at room temperature: 72±8° F.; and at 30%-70% relative humidity. Fast the dogs for 16 hours prior to the start of the study, then dose the fasted dogs with vehicle (1% HEC, 0.25%, Tween 80, Antifoam) or one of the test compounds in that vehicle. Bleed the dogs one hour after dosing, (0.5 ml from the jugular vein) for a time 0 sample. Dose the dogs with olive oil (Sigma Catalog#: O-1514, 5 ml/kg) immediately after collection of the time 0 sample. Collect samples into an EDTA tube on ice at 1.5, 2, 3, 5, 7, and 9 hrs post compound/vehicle dosing. Centrifuge the samples at […] for 15 min and analyze (Roche Cat no. 1877771) for plasma total triglyceride using a Roche Hitachi 917. For plasma TAG 18.1—18.1—18.1 measurement, extract the samples and perform LC/MS/MS analysis similarly to that described above in MOGAT-2 Cell Assay using 10 μL of plasma/.
The analyte is the [M+NH4]+ ion of TAG 18:1 18:1 18:1, which has a mass of 902.8 m/z; the internal standard is D5 TAG 16:0 16:0 16:0, which has a mass of 829.8 m/z. Report the ratio of the 603.5 m/z daughter ion of 902.8 m/z (TAG 18:1 18:1 18:1) and the 556.5 m/z daughter ion of 829.8 m/z (D5 TAG 16:0 16:0 16:0 internal standard) changes in TAG 18:1 18:1 18:1 relative amount. Calculate the net plasma TAG AUC from total TAG AUC minus baseline TAG AUC using Graphpad Prism4: (Net AUCTAG=AUCTAG post oil bolus−AUCTAG at 0 hour). The percent inhibition of plasma triglyceride is calculated as follows: the (oil bolus group mean of net TAG AUC−oil bolus group mean of net TAG AUC with compound treatment/oil bolus group mean of net TAG AUC)*100. The final statistic analysis uses Dunnett's method of One way Anova for comparison with the control. All Net TAG AUC values are transformed to ranked averaged AUC for comparison to limit the variability within the studies.

The target in experiment [2] is T1, human MOGAT-2 (Homo sapiens, UniProt Q3SYC2). Briefly: Inhibitory Activity in MOGAT-2 Cell Assay (Caco-2 cells stably transfected with human MOGAT-2, HDG substrate, LC-MS). The arrangement: expressed in transfected cells. It is filed as cell-based. The following applies: Caco-2 cells expressing human MOGAT-2, HDG/DOPC, 4 hours; read-out: IC50 nM (Std Dev., n*). Here is the method: The inhibitory activity of compounds against human MOGAT-2 in a cell environment is evaluated in this assay. Caco-2 is a human colon carcinoma cell line and is often used as a model for intestinal epithelial cells. […] A MAG analogue, 2-O-Hexadecylglycerol (HDG), is utilized to detect cellular MOGAT-2 activity, because HDG is not hydrolyzed and the resulting product is readily monitored by mass spectrometry. The substrate is delivered to cells using as a mixture with DOPC in the form of sonicated vesicles.
T1 sequence (Q3SYC2 whole entry): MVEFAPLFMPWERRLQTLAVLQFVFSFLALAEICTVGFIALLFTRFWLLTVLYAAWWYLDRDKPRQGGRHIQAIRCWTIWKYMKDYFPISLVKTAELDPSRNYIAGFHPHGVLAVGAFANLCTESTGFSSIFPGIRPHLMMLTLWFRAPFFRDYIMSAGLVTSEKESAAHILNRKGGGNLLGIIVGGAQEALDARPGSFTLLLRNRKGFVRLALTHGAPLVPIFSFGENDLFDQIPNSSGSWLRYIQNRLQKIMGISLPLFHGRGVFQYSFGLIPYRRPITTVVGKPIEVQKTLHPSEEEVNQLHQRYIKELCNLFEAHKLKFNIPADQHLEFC
Seed the Caco2 cells onto 100 mm dishes to be 80% confluent after 24 hours in complete media (3/1 DMEM: F12+10% FBS+20 mM HEPES+gentamicin). Transfect the cells with hMOGAT-2 plasmid (MOGAT-2-pcDNA3.1-Hygro) using Lipofectamine 2000 (Invitrogen). After a 6 hour exposure to the transfection mixture, wash the cells three times in PBS and then add media. Incubate the cells for an additional 18 hours incubation, trypsinize the cells and serially dilute them into 100 mm dishes. Add complete media+400 μg/ml hygromycin and incubate until clones appear. Isolate and transfer the clones into 24 well dishes and grow to confluency. Prepare the RNAs from these clones using a Qiagen RNAeasy kit. Perform Taqman analysis using an ABI inventoried assay (HS00228262) on a 7900 Sequence Detection System (ABI). Analyze the lysates from these clones by Western blot analysis using a goat polyclonal antibody (Santa Cruz, SC-32392 to confirm human MOGAT-2 expression of a 38 kD protein corresponding to MOGAT-2.
Mix 2-O-hexadecylglycerol (“HDG”, Biosynth Chemistry & Biology, #H-1806, 562.7 μl of 20 mg/ml) and DOPC (14.3 ml of 20 mg/ml) in chloroform in a glass tube; dry first under N2 gas; and then under reduced pressure for additional 30 minutes. Add 20 ml of buffer (150 mM Tris-Cl pH 7.4, 250 mM sucrose, 1 mM EDTA) to the dried HDG/DOPC mixture while sonicating until the solution becomes clear. Plate the Caco2 cells into a poly-D-lysine coated 96-well plate (the “Cell Plate”) at 37° C., 5% CO2 overnight. Remove the growth media and pretreat the cells with the test compound in DMEMF12 (3:1) media (GIBCO 93-0152DK) containing 2% BSA (Sigma) for 30 minutes. Treat the cells with one test compound in 2% BSA DMEMF12 (3:1) media containing 40 μM of oleic acid and 800 μM of 8.9:91.9 (molar ratio) HDG/DOPC for 4 hours. Trypsinize the cells with 50 μl of trypsin solution and add 50 μl of PBS. Immediately freeze the cells on dry ice and store at −20° C. for LC-MS analysis. Extract the cells with chloroform/methanol as follows: transfer the cells to a 2 ml plate; wash the cell plate with 200 μL methanol and then transfer the methanol wash to the 2 ml plate; wash the cell plate again with 200 μL PBS and transfer the PBS wash to the 2 ml plate. Add chloroform (400 μL) with internal standard (19.52 ng/mL) DAG (15:0, 15:0 (Sigma)), D5-TAG (39.03 ng/mL) CDN (16, 16, 16) to the 2 mL Plate. Turn the sealed 2 mL Plate up and down (10×), then vortex and spin. Remove 400 μL of the lower layer from the 2 mL plate and add to the wells of another plate the “Final Plate”. Add CHCl3:MeOH (400 μL 2:1) to the 2 mL Plate. Again turn the sealed 2 mL Plate up and down (10×), vortex and spin. Remove 220 μL of the lower layer from the 2 mL Plate and add to the Final Plate. Dry the Final Plate and reconstitute with […] of IPA. Seal the Final Plate and shake for 5 min. […]

Experiment [3] concerns the target T1, human MOGAT-2. Briefly: MOGAT-2 Inhibitory Assay (in vitro, SF9 cell lysate, 14C-oleoyl-CoA, Microscint extraction). It is filed as biochemical. Also noted: made in house; host or cells: insect SF9 cells (crude lysate supernatant). As to conditions: SF9 cell extract expressing human MOGAT-2, 90 min, room temperature. Here is the method:
The in vitro inhibitory activity of compounds against human MOGAT-2 is evaluated in this assay. MOGAT-2 transfers an oleoyl group to monooleoyl-glycerol (“MAG”) from oleoyl-CoA to form dioleoyl-glycerol (“DAG”) in the intestinal triglyceride resynthesis pathway. The assay takes advantage of Microscint Extraction, which extracts hydrophobic molecules selectively over hydrophilic ones to separate the ^14C-oleoyl-CoA from ^14C-DAG.
Genetically engineered insect SF9 cells express human MOGAT-2. Prepare the cell lysate in 20 mM of NaCl with protease inhibitor (Roche Cat #11873580001). Homogenize the SF9 cells expressing human MOGAT-2 at 15,000 rpm for 20×2 seconds (PT-3100 Polytrone). Centrifuge the homogenate at 1000 g for 10 minutes at 4° C. Collect the supernatant into a separate tube for protein quantification and activity testing. Purify the glycerol monooleate substrate (Spectrum Chemical, CAS#25496-72-4) chromatographically. Prepare the monoacylglyerol (MAG) substrate in phospholipid vescicles (dioleoyl phosphatidylcholine “DOPC”). Prepare the MAG/DOPC vesicles at 20 mM concentration of total lipids (MAG and DOPC). Prepare different molar ratios of MAG to total lipids for either compound screening (8.9%) or compound kinetic studies (2.6-40%). Mix the appropriate amount of purified MAG and DOPC (Avanti Polar Lipids #850375C) in chloroform in a glass tube. […]

As usually defined, the IC50 is the concentration that inhibits the measured activity by half. Regarding `C[C@H](CNCc1ccc([C@H](NS(C)(=O)=O)C(F)(F)F)cc1)Oc1ccc(F)cn1.Cl` [Example 36, N-[(1S)-2,2,2-Trifluoro-1-{4-[({(2r)-2-[(5-fluoropyridin-2-yl)oxy]propyl}amino)methyl]phenyl}ethyl]-methanesulfonamide hydrochloride], the “reduction of 18:1 TAG (plasma TAG 18:1 18:1 18:1 net AUC)” value in experiment [1] (60 mg/kg) came to 43%. For the same compound, in experiment [1] (60 mg/kg, total TAG), the “reduction of TAG secretion/absorption (percent inhibition of plasma total triglyceride net AUC)” value is given as 38%. Besides, the IC50 at human MOGAT-2 [2] was determined as 36.1 nM.
As to `COC[C@H](CNCc1ccc([C@H](NS(C)(=O)=O)C(F)(F)F)cc1)Oc1ccccn1` [Example 5, N-{(1S)-2,2,2-Trifluoro-1-[4-({[(2S)-3-methoxy-2-(pyridin-2-yloxy)propyl]amino}-methyl)phenyl]ethyl}-methanesulfonamide hydrochloride (1:1)], the 50% inhibitory concentration (IC50) on human MOGAT-2 [2] amounted to 44.6 nM.
Same read-out and setting: next, `CS(=O)(=O)N[C@@H](c1ccc(CNCCOc2ccc(F)cn2)cc1)C(F)(F)F` [Example 17, N-[(1S)-2,2,2-Trifluoro-1-{4-[({2-[(5-fluoropyridin-2-yl)oxy]ethyl}amino)-methyl]phenyl}ethyl]-methanesulfonamide hydrochloride]: 45.5 nM.
By pIC50 is commonly meant the IC50 on a negative log10 scale, so that one unit is a factor of ten. Lower therefore signals a high IC50. On to `COC[C@H](CNCc1ccc([C@H](NS(C)(=O)=O)C(F)(F)F)cc1)Oc1ccc(F)cn1.Cl` [Example 1, N-[(1S)-2,2,2-Trifluoro-1-{4-[({(2S)-2-[(5-fluoropyridin-2-yl)oxy]-3-methoxypropyl}amino)methyl]phenyl}ethyl]methanesulfonamide hydrochloride], for which the “reduction of 18:1 TAG (plasma TAG 18:1 18:1 18:1 net AUC)” value in experiment [1] (30 mg/kg) came out at 64%; in experiment [1] (60 mg/kg), 76%. The “reduction of TAG secretion (percent inhibition of plasma total triglyceride net AUC)” value in experiment [1] (30 mg/kg, total TAG) is 61%. In addition, the “reduction of TAG secretion/absorption (percent inhibition of plasma total triglyceride net AUC)” value in experiment [1] (60 mg/kg, total TAG) is listed as 77%. For the same compound, the half-maximal inhibitory concentration (IC50) on human MOGAT-2 [2] amounted to 30.6 nM. Also, the pIC50 against human MOGAT-2 [3] is 8.70.
For the compound `C[C@H](CNCc1ccc([C@H](NS(C)(=O)=O)C(F)(F)F)cc1)Oc1ccccn1` [Example 3, N-{(1S)-2,2,2-Trifluoro-1-[4-({[(2R)-2-(pyridin-2-yloxy)propyl]amino}-methyl)phenyl]ethyl}-methanesulfonamide hydrochloride], the IC50 at human MOGAT-2 [2] turned out to be 14.4 nM.
